Earlier results as cited in patent publication US20120316496A1, “USE OF COMPOSITIONS TO COAT CATHETER BALLOONS AND COATED CATHETER BALLOONS” (priority 2009, published 2012).

Settings: at 20° C.

Structure (SMILES) | vapor pressure
CC12CCC(CC1=O)C2(C)C (stereo not shown) [Camphor] | 20 Pa
C[S+](C)[O-] [DMSO, dimethyl sulfoxide] | 250 Pa
CCOC(C)=O [Ethyl acetate] | 9700 Pa
OCCO [Ethylene glycol] | 5,3 Pa
